Data reported in PubChem BioAssay (NCI).
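GI50: concentration for 50% inhibition of growth. TGI is the concentration that stops growth completely.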

Experiments:
Experiment in all cases: NCI-60 cell line screen, 384-well format; in the data active = GI50 below about 0.43 µM; inactive = the rest
SF-539 CNS = system: SF-539 CNS
LOX IMVI melanoma = system: LOX IMVI melanoma
T-47D breast = system: T-47D breast
MDA-MB-435 melanoma = system: MDA-MB-435 melanoma
NCI-H460 NSCLC = system: NCI-H460 NSCLC
SK-MEL-5 melanoma = system: SK-MEL-5 melanoma
SNB-19 CNS = system: SNB-19 CNS
SK-MEL-28 melanoma = system: SK-MEL-28 melanoma
SN12C renal = system: SN12C renal
COLO 205 colon = system: COLO 205 colon
MOLT-4 leukemia = system: MOLT-4 leukemia
EKVX NSCLC = system: EKVX NSCLC
SF-295 CNS = system: SF-295 CNS
BT-549 breast = system: BT-549 breast
UACC-62 melanoma = system: UACC-62 melanoma
OVCAR-3 ovarian = system: OVCAR-3 ovarian
U251 glioblastoma = system: U251 glioblastoma
RPMI-8226 leukemia = system: RPMI-8226 leukemia
IGROV1 ovarian = system: IGROV1 ovarian
UACC-257 melanoma = system: UACC-257 melanoma
HCT-15 colon = system: HCT-15 colon
MALME-3M melanoma = system: MALME-3M melanoma
NCI-H522 lung = system: NCI-H522 lung
OVCAR-5 ovarian = system: OVCAR-5 ovarian
UO-31 renal = system: UO-31 renal
DU-145 prostate = system: DU-145 prostate
M14 melanoma = system: M14 melanoma
786-0 renal = system: 786-0 renal
PC-3 prostate = system: PC-3 prostate
A498 renal = system: A498 renal
SK-OV-3 ovarian = system: SK-OV-3 ovarian
MDA-MB-231 breast = system: MDA-MB-231 breast
RXF 393 renal = system: RXF 393 renal
MDA-MB-468 breast = system: MDA-MB-468 breast
SW-620 colon = system: SW-620 colon
NCI-H322M lung = system: NCI-H322M lung
HOP-92 NSCLC = system: HOP-92 NSCLC
NCI/ADR-RES ovarian = system: NCI/ADR-RES ovarian
HOP-62 NSCLC = system: HOP-62 NSCLC
HS 578T breast = system: HS 578T breast
OVCAR-4 ovarian = system: OVCAR-4 ovarian
SNB-75 CNS = system: SNB-75 CNS
HCC-2998 colon = system: HCC-2998 colon
SR leukemia = system: SR leukemia
NCI-H226 lung = system: NCI-H226 lung
HCT-116 colon = system: HCT-116 colon
SF-268 CNS = system: SF-268 CNS

C/C=C1\NC(=O)[C@H]2CSSCCC=C[C@H](CC(=O)N[C@H](C(C)C)C(=O)N2)OC(=O)[C@H](C(C)C)NC1=O
13.8 µM: TGI (NCI/ADR-RES ovarian)
< 0.0149 µM: TGI (786-0 renal)
0.0101 µM: TGI (NCI-H460 NSCLC)
0.159 µM: TGI (UO-31 renal)
< 0.01 µM: TGI (SF-539 CNS) | TGI (LOX IMVI melanoma) | TGI (T-47D breast) | TGI (MDA-MB-435 melanoma) | TGI (SK-MEL-5 melanoma) | TGI (SNB-19 CNS) | TGI (SK-MEL-28 melanoma) | TGI (SN12C renal) | TGI (COLO 205 colon) | TGI (MOLT-4 leukemia) | TGI (SF-295 CNS) | TGI (BT-549 breast) | TGI (UACC-62 melanoma) | TGI (OVCAR-3 ovarian) | TGI (U251 glioblastoma) | TGI (RPMI-8226 leukemia) | TGI (IGROV1 ovarian) | TGI (UACC-257 melanoma) | TGI (MALME-3M melanoma) | TGI (NCI-H522 lung) | TGI (OVCAR-5 ovarian) | TGI (DU-145 prostate) | TGI (M14 melanoma) | TGI (PC-3 prostate) | TGI (A498 renal) | TGI (SK-OV-3 ovarian) | TGI (MDA-MB-231 breast) | TGI (RXF 393 renal) | TGI (MDA-MB-468 breast) | TGI (SW-620 colon) | TGI (NCI-H322M lung) | TGI (HOP-92 NSCLC) | TGI (HOP-62 NSCLC) | TGI (HS 578T breast) | TGI (OVCAR-4 ovarian) | TGI (SNB-75 CNS) | TGI (HCC-2998 colon) | TGI (SR leukemia) | TGI (HCT-116 colon) | TGI (SF-268 CNS)
0.0192 µM: TGI (NCI-H226 lung)
0.806 µM: TGI (HCT-15 colon)
inactive: GI50 (NCI/ADR-RES ovarian) 2.85 µM
0.0308 µM: TGI (EKVX NSCLC)
active: GI50 (SF-539 CNS) < 0.01 µM | GI50 (LOX IMVI melanoma) < 0.01 µM | GI50 (T-47D breast) < 0.01 µM | GI50 (MDA-MB-435 melanoma) < 0.01 µM | GI50 (NCI-H460 NSCLC) < 0.01 µM | GI50 (SK-MEL-5 melanoma) < 0.01 µM | GI50 (SNB-19 CNS) < 0.01 µM | GI50 (SK-MEL-28 melanoma) < 0.01 µM | GI50 (SN12C renal) < 0.01 µM | GI50 (COLO 205 colon) < 0.01 µM | GI50 (MOLT-4 leukemia) < 0.01 µM | GI50 (EKVX NSCLC) < 0.01 µM | GI50 (SF-295 CNS) < 0.01 µM | GI50 (BT-549 breast) < 0.01 µM | GI50 (UACC-62 melanoma) < 0.01 µM | GI50 (OVCAR-3 ovarian) < 0.01 µM | GI50 (U251 glioblastoma) < 0.01 µM | GI50 (RPMI-8226 leukemia) < 0.01 µM | GI50 (IGROV1 ovarian) < 0.01 µM | GI50 (UACC-257 melanoma) < 0.01 µM | GI50 (HCT-15 colon) 0.0829 µM | GI50 (MALME-3M melanoma) < 0.01 µM | GI50 (NCI-H522 lung) < 0.01 µM | GI50 (OVCAR-5 ovarian) < 0.01 µM | GI50 (UO-31 renal) 0.0436 µM | GI50 (DU-145 prostate) < 0.01 µM | GI50 (M14 melanoma) < 0.01 µM | GI50 (786-0 renal) < 0.01 µM | GI50 (PC-3 prostate) < 0.01 µM | GI50 (A498 renal) < 0.01 µM | GI50 (SK-OV-3 ovarian) < 0.01 µM | GI50 (MDA-MB-231 breast) < 0.01 µM | GI50 (RXF 393 renal) < 0.01 µM | GI50 (MDA-MB-468 breast) < 0.01 µM | GI50 (SW-620 colon) < 0.01 µM | GI50 (NCI-H322M lung) < 0.01 µM | GI50 (HOP-92 NSCLC) < 0.01 µM | GI50 (HOP-62 NSCLC) < 0.01 µM | GI50 (HS 578T breast) < 0.01 µM | GI50 (OVCAR-4 ovarian) < 0.01 µM | GI50 (SNB-75 CNS) < 0.01 µM | GI50 (HCC-2998 colon) < 0.01 µM | GI50 (SR leukemia) < 0.01 µM | GI50 (NCI-H226 lung) < 0.01 µM | GI50 (HCT-116 colon) < 0.01 µM | GI50 (SF-268 CNS) < 0.01 µM
